For one data set, the system named is SW480 cancer cells. Description: Cellular accumulation (ICP-MS) in SW480 cells. The conditions noted are these: 50 μM, 0.5% DMF in MEM, SW480, exposure time 2 h. The procedure:
(§1) As the coordinated p-cym and leaving groups are present in all synthesized complexes, we focused on the differently substituted 4-phenylthiazoles for estimated changes in lipophilicity.
Cellular accumulation of the compounds was studied based on a method described previously with modifications. 1.8 × 10^5 SW480 cells per well were seeded in aliquots of 1 mL of complete MEM (see above) into 12-well plates (CytoOne, tissue culture treated, Starlab) and incubated at 37°C for 24 h. Then, cells were exposed for 2 h at 37°C to 50 μM solutions of the test compounds (containing 0.5% DMF) in fresh 0.5 mL of complete MEM upon exchange of the medium. Afterward, cells were washed three times with 1 mL PBS per well, lysed with 0.4 mL sub-boiled HNO3 per well for 1 h at room temperature, and 0.3 mL of each sample was diluted with 7.7 mL Milli-Q water. Adsorption/desorption controls were prepared in the same manner in cell-free wells. Ruthenium content was quantified by ICP-MS using an ICP-quadrupole MS Agilent 7800 instrument (Agilent Technologies, Waldbronn, Germany) as described previously.

A further data set in a line: Solubility in 1% DMF/PBS.
Description: Solubility is an important factor for the application of metallodrugs. DMF was used as solubilizer to allow comparison to the respective chlorido complexes where the usage of DMSO would lead to stable DMSO adducts.
as §1

The test system of another data set is SW480 cells. As to the kind of experiment: DCFH-DA assay, cellular ROS levels. The format is cell-based, human. The conditions noted are these: 2 h, concentration dependent. How it is done:
For this approach, SW480 cells were subjected to the 2′,7′-dichlorofluorescin-diacetate (DCFH-DA) assay.
SW480 colon adenocarcinoma cells were trypsinized for 5 min in a humidified incubator at 37°C and under a 5% CO2 atmosphere. Supplemented MEM was added to stop trypsinization, and cells were centrifuged for 3 min at 1200 rpm (Heraeus Megafuge 1.0R). After cell counting, SW480 cells were seeded in 100-μL aliquots in densities of 2.5 × 10^4 cells/well into 96-well clear flat-bottom microplates (CytoOne, TC-treated, from Starlab). After incubation for 24 h, cells were washed with 200 μL of Hanks' balanced salt solution (HBSS; Sigma-Aldrich; supplemented with 1% heat-inactivated FCS). […] After washing cells with 200 μL of supplemented HBSS, serially diluted test compounds in phenol-red-free Opti-MEM (Gibco), supplemented with 1% heat-inactivated FCS, were added in 200-μl triplicates and tert-butyl hydroperoxide (TBHP) was applied as positive control. […] Blank-corrected values were calculated relative to negative controls (treated with drug-free supplemented Opti-MEM) from three independent experiments.

The subject of data set [1] is G4 forming sequences (h-Telo, bcl2, hTERT, Kit1, Kit2) and dsDNA. As to the kind of experiment: FRET melting assay, G-quadruplex / B-DNA interaction. The data set is classed as binding, human. The conditions noted are these: 60 mM potassium cacodylate pH 7.4, 2 h incubation. How it is done:
G4s are DNA secondary motifs that play crucial roles in cancer development. […] The complexes were incubated with different G4 forming sequences: one derived from human telomere-forming (h-Telo) and four corresponding to promoter regions of oncogenes, namely, bcl2, hTERT, Kit1, and Kit2. For comparison, a self-complementary sequence called dsDNA was used to represent B-DNA (Table S2).
FRET experiments were conducted using an Applied Biosystems QuantStudio 6 PCR cycler in a 96-well format equipped with a FAM (6-carboxyfluorescein) filter. Oligonucleotide stock solutions, labelled with FAM and TAMRA (6-carboxytetramethylrhodamine) probes, were diluted to the desired concentration in a 60-mM potassium cacodylate buffer (pH 7.4). To fold the oligonucleotides into their B-DNA or G4 topologies, the solutions were heated to 95°C for 5 min and then allowed to cool slowly to room temperature overnight. The final concentration of the oligonucleotides was 0.2 μM, with a total volume of 30 μL in each well. Metal complexes were dissolved in DMF to prepare 2 mM stock solutions and further diluted with the buffer, where DMF concentration never exceeded 0.05%. Mixtures of oligonucleotides and metal compounds were left at room temperature for 2 h. Data were collected twice, each time in duplicate, over a temperature range of 25°C–95°C, with a ramp of 1°C every 30 s. FAM emission data were normalized from 0 to 1 to compare different datasets. After data normalization, we extrapolated the T1/2 values, i.e., the temperature at which normalized FAM emission is 0.5. The DNA concentration is expressed in strands.

A further data set deals with Balb/c mice. As to the kind of experiment: Toxicity experiments in Balb/c mice (MTD). The conditions noted are these: for Toxicity in mice: i.p. 50 mg/kg, three consecutive days, 10% DMSO in 0.9% NaCl; for MTD fold lower compared to 1c and 3c: mice. How it is done: Finally, we were interested in the anticancer activity of selected complexes of our panel in an in vivo mouse setting. Before injecting the compounds in tumor-bearing mice, toxicity experiments were performed. […] On the last day of therapy, most animals were sacrificed and tissues as well as tumors collected. Only four mice (per group) were kept to get information on the impact of the drugs on the overall survival.

For data set [2], the system named is HCT116 colorectal cancer cell line (2D). Description: Resazurin assay, HCT116 2D (monolayer) culture. The following applies: read-out: IC50 2D, resazurin assay, 96 h exposure.
Data set [3] has as its system A549 lung adenocarcinoma cells. Description: MTT assay, inhibition of cancer cell growth, A549. The following applies: read-out: 50% inhibitory concentration A549, exposure time 96 h.
Description: (§2) CH1/PA-1 ovarian teratocarcinoma cells (CH1, RRID: CVCL_4992, provided by L. R. Kelland, CRC Center for Cancer Therapeutics, Institute of Cancer Research, Sutton, UK; confirmed by STR profiling as PA-1 ovarian teratocarcinoma cells at Multiplexion, Heidelberg, Germany), SW480 colon adenocarcinoma (RRID: CVCL_0546), and A549 lung adenocarcinoma cells (NCI-H2618, RRID: CVCL_A549; both cell lines were obtained from the American Type Culture Collection (ATCC), Manassas, VA, USA) were grown as adherent cultures in 75-cm^2 culture flasks (Starlab, Hamburg, Germany) by using minimal essential medium (MEM) supplemented with 1 mM sodium pyruvate, 4 mM L-glutamine, 1% (v/v) nonessential amino acids from 100-fold stock (all purchased from Sigma-Aldrich), and 10% heat-inactivated fetal bovine serum (Serana, Pessin, Germany).
(§3) The 3-(4,5-dimethylthiazol-2-yl)-2,5-diphenyl-2H tetrazolium bromide (MTT, Acros Organics, Geel, Belgium) assay was used to detect the cytotoxicity of the compounds after 96-h incubation. For this purpose, cells were harvested from culture flasks by trypsinization, seeded in 100-μL aliquots into 96-well microculture plates (Starlab, UK) in densities of 1 × 10^3 (CH1/PA-1), 2 × 10^3 (SW480), and 3 × 10^3 (A549) cells per well and incubated for 24 h prior to exposure to the test compounds. Stock solutions of test compounds were prepared in DMF, which were then diluted in MEM (not to exceed a final content of 0.5% v/v of organic solvent in the test plates), and serial dilutions were added in aliquots of 100 μL per well. […] After incubation for 4 h, the medium/MTT mixtures were removed, and the produced formazan crystals were dissolved in 150 μL DMSO per well. Optical densities at 550 nm were measured spectrophotometrically with a ELx808 Absorbance Microplate Reader (Bio-Tek, Winooski, VT, USA) by using a reference wavelength of 690 nm to correct for unspecific absorption.
The test system of data set [4] is SW480 colon adenocarcinoma cells. As to the kind of experiment: MTT assay, inhibition of cancer cell growth, SW480. The following applies: read-out: 50% inhibitory concentration SW480, exposure time 96 h.
Description: as §2, §3
In data set [5] the test system is CH1/PA-1 ovarian teratocarcinoma cells. As to the kind of experiment: MTT assay, inhibition of cancer cell growth, CH1/PA-1. The conditions noted are these: read-out: 50% inhibitory concentration CH1, exposure time 96 h.
Description: as §2, §3
Data set [6] relates to HCT116 multicellular tumor spheroids (3D). As to the kind of experiment: Resazurin assay, HCT116 3D multicellular tumor spheroids. The conditions noted are these: read-out: IC50 3D; HCT116 3D spheroids, resazurin assay, 96 h exposure.
Description: Both models were investigated by the fluorimetric resazurin assay after 96-h exposure.
HCT116 colorectal carcinoma cells (RRID:CVCL_0291 from ATCC) were cultivated in McCoy's 5A medium, supplemented with 10% heat-inactivated fetal bovine serum and 4 mM L-glutamine.
For 2D experiments, HCT116 cells were harvested from culture flasks by trypsinization, seeded in 100-μL aliquots into 96-well microculture plates (CytoOne, TC-treated, from Starlab) in densities of 2 × 10^3 cells per well, and incubated for 24 h prior to exposure to the test compounds. […] Stock solutions of test compounds were prepared in DMF, which were then diluted in McCoy's 5A-supplemented medium (not to exceed a final content of 0.5% v/v of organic solvent in the test plates), and serial dilutions were added in aliquots of 100 μL per well. […] After incubation for 4 h, fluorescence was measured with a microplate reader (Bio-Tek, SynergyHT) at a wavelength of 530 nm, additionally using a reference wavelength of 620 nm.
Data set [7] can be described thus: Stability and reactivity in aqueous solution (1H-NMR, UV-vis).
Description: The exact concentration of the metal complex stock solutions was calculated on weight-in-volume basis. Complexes were dissolved in water in 1–5 mM concentration.
The path length was 1 cm.
^1H-NMR spectroscopic studies were carried out on a Bruker FT-NMR spectrometer AV NEO 500.10 MHz and a Bruker Avance III HD Ascend 500 Plus instrument. All ^1H-NMR spectra were recorded using a standard Bruker noesygppr1d pulse sequence to suppress water resonance. […] Samples contained 10% (v/v) D2O with a complex concentration of ca. 1 mM. Samples were prepared in pH 1.3 aqueous HCl solution or in pH 7.4 PBS.
The subject of data set [8] is A549 lung adenocarcinoma cells. Also noted: method as in PMID 38426897. The following applies: MTT assay, exposure time 96 h; ref [5]; read-out: 50% inhibitory concentration A549 (chlorido complexes, reference) (converted); cited from earlier work.
The test system of data set [9] is SW480 colon adenocarcinoma cells. Also noted: method as in PMID 38426897. The conditions noted are these: MTT assay, exposure time 96 h; ref [5]; read-out: 50% inhibitory concentration SW480 (chlorido complexes, reference) (converted); cited from earlier work.
The test system of data set [10] is CH1/PA-1 ovarian teratocarcinoma cells. The arrangement: method as in PMID 38426897. The conditions noted are these: MTT assay, exposure time 96 h; ref [5]; read-out: 50% inhibitory concentration CH1 (chlorido complexes, reference) (converted); cited from earlier work.
Data set [11] has as its system G4 forming sequences (h-Telo, bcl2, hTERT, Kit1, Kit2) and dsDNA. Also noted: method as in PMID 38426897. The following applies: recent work; ref [5]; cited from earlier work.

Read-outs that look alike come from different tables or passages of the source.

Consider `Cc1ccc(C(C)C)cc1.Cn1cc[n+]([Ru-]2[c]3ccccc3-c3csc[n+]32)c1.O=[N+]([O-])[O-]` [Compound 3a, [((3-κN)-1-Methylimidazole)(4-phenylthiazolato-κN,κC2′)(η^6-p-cymene)ruthenium(II)] Nitrate], for which the “Cellular accumulation, fg Ru/cell” value in the data set with SW480 cancer cells is 387 ± 16 fg Ru/cell. In addition, the Solubility in the data set “Solubility in 1% DMF/PBS” is on record as 9.08 mM. In addition, the “Effect on intracellular ROS levels” value with SW480 cells is on record as “constantly decrease ROS levels with increasing concentrations”. Besides, in data set [1], the “Stabilization of oligonucleotides (G4s or B-DNA)” value is listed as “No stabilization”. Besides, the Toxicity in mice result in the data set on Balb/c mice (Balb/c mice) is reported as “highly toxic”. The “MTD fold lower compared to 1c and 3c” value with Balb/c mice turned out to be 10 fold. For the same molecule, the IC50 in [2] came out at 8.4 ± 0.7 µM; in data set [3] it was 11 ± 1 µM; in [4], 5.4 ± 1.1 µM; in [5] it was 1.9 ± 0.1 µM; in data set [6], 10.6 ± 0.9 µM. Moreover, in [7] (3 M KCl, pH 7.4, UV-vis), the “Sensitivity to chloride: replacement of coordinated MeIm” value is reported as “could not replace coordinated MeIm”. Further, in data set [7] (PBS pH 7.4, 1 mM complex, 25°C, within 6 days, 1H-NMR), the “Decomposition at pH 7.4” value is given as “no decomposition”. The “Behaviour in acidic solution” value in data set [7] (pH = 1.0 or 1.3 (HCl), followed in time up to 6 days, 1H-NMR/UV-vis) is “decomposition”. In [7] (pH = 10.0 (NaOH), within 2 days, UV-vis), the “Spectral change at pH 10.0” value is “no spectral change”.

For `Cc1ccc(-c2cscn2)[c]([Ru][Cl])c1.Cc1ccc(C(C)C)cc1` [Compound 1d], the IC50 in data set [8] was 34 µM; in data set [9], 19 µM; in data set [10], 14 µM. In addition, the “Stabilization of DNA G-quadruplex structures” value in [11] is reported as “stabilize DNA G-quadruplex (G4) structures”.

As to `Cc1ccc(C(C)C)cc1.[Cl][Ru][c]1ccccc1-c1cscn1` [Compound 1a], in the data set with SW480 cells, the “Effect on intracellular ROS levels” value is “constantly decrease ROS levels with increasing concentrations”. In addition, in the data set on Balb/c mice (Balb/c mice, i.p.), the “Maximal tolerable dose (MTD) for repeated applications” value was determined as 5 mg/kg. Also, the Toxicity in mice result with Balb/c mice (Balb/c mice) is “highly toxic”. Also, the “MTD fold lower compared to 1c and 3c” value with Balb/c mice is 10 fold. Also, the IC50 in [8] was 24 µM; in data set [9] it was 9.5 µM; in [10] it was 3 µM; in [2] it was 18 ± 5 µM; in data set [6] it was 31 ± 5 µM. In data set [11], the “Stabilization of DNA G-quadruplex structures” value is given as “stabilize DNA G-quadruplex (G4) structures”.

The values are drawn from publication PMC12463534, “Exploring the Anticancer Properties of 4-Phenylthiazole-Based Ru(II) and Os(II) Metallacycles Featuring 1-Methylimidazole as N-Donor Functionality” (Bioinorganic Chemistry and Applications, 2025).
